This is an account of results in patent US9355787B2, “Method of forming rigid imide material from soluble amide ester functionalized precursors” (Colorado School of Mines, priority 2013, dated 2016).

A short description of the data set: Qualitative solubility of diester-diacid monomers in organic solvents.
Consider `CCCCC(CC)COC(=O)c1ccc2c3ccc(C(=O)O)c4c(C(=O)OCC(CC)CCCC)ccc(c5ccc(C(=O)O)c1c52)c43` (stereo not drawn) [Monomer 2d, di-2-ethy hexyl ester of perylene-3,4,9,10 tetracarboxylic acid], for which the “Solubility of monomer or dianhydride, in words” value (“Solubility” below) was “soluble in polar aprotic solvents like NMP, and DMSO”.

Turning to `CCCCCCOC(=O)c1ccc2c3ccc(C(=O)O)c4c(C(=O)OCCCCCC)ccc(c5ccc(C(=O)O)c1c52)c43` [Monomer 2c, di-N-hexyl ester of perylene-3,4,9,10 tetracarboxylic acid], the “Solubility” value is “soluble in polar aprotic solvents like NMP, and DMSO”. On to di-ethyl ester of NTDA [Monomer 1b], for which the “Solubility” value is on record as “soluble in most of the organic solvents”. With di-methyl ester of NTDA [Monomer 1a] the entry was “soluble in most of the organic solvents”; with `O=C1OC(=O)c2ccc3c4ccc5c6c(ccc(c7ccc1c2c73)c64)C(=O)OC5=O` [PTDA, 3,4,9,10-perylenetetracarboxylic dianhydride], “insoluble in all solvents”.

With di-hexyl ester of NTDA [Monomer 1c], the “Solubility” value is “soluble in most of the organic solvents”.
